Reference: ChEMBL document CHEMBL2034879, “Discovery of SCH 900271, a Potent Nicotinic Acid Receptor Agonist for the Treatment of Dyslipidemia” (ACS Med Chem Lett, 2012)
Calls of active or inactive are those of the source. The calls are words filed in the database; no cut-off is given here.

Columns and labels:
[1] = target: Hydroxycarboxylic acid receptor 2 (Rattus norvegicus, UniProt Q80Z39); test: Agonist activity at rat GPR109a; assay type: functional
[2] = organism: Rattus norvegicus; test: Nephrotoxicity in rat assessed as increase in creatinine level; assay type: toxicity, organism-based; conditions: in vivo
[3] = test system: Rattus norvegicus; test: Antidyslipidemic activity in fasted Sprague-Dawley rat assessed as reduction in free fatty acid level in plasma at 1 mg/kg, po after 1 hr relative to vehicle-treated control; assay type: functional; set-up: scale not given: the % may be the effect or the level left
[4] = target: Hydroxycarboxylic acid receptor 2 (Mus musculus, UniProt Q9EP66); test: Agonist activity at mouse GPR109a; assay type: functional
[5] = organism: Rattus norvegicus; test: Nephrotoxicity in rat assessed as increase in serum blood urea nitrogen level; assay type: toxicity, organism-based; conditions: in vivo
[6] = test system: Mus musculus; test: Nephrotoxicity in CD1 mouse assessed as increase in creatinine level at 100 mg/kg; assay type: toxicity, organism-based; set-up: dose 100 mg/kg; conditions: in vivo
[7] = Agonist activity at dog GPR109a; assay type: functional, Canis lupus familiaris
[8] = target: Hydroxycarboxylic acid receptor 3 (Homo sapiens, UniProt P49019); test: Agonist activity at human GPR109b; assay type: functional
[9] = test system: Canis familiaris; test: Antidyslipidemic activity in fasted beagle dog assessed as reduction in free fatty acid level in plasma at 0.3 mg/kg, po after 1 hr relative to vehicle-treated control; assay type: functional, Canis lupus familiaris; set-up: scale not given: the % may be the effect or the level left
[10] = test system: Canis familiaris; test: Antidyslipidemic activity in po dosed fasted beagle dog assessed as reduction in free fatty acid level in plasma relative to vehicle-treated control; assay type: functional, organism-based; conditions: Canis lupus familiaris
[11] = organism: Mus musculus; test: Nephrotoxicity in CD1 mouse assessed as acute renal necrosis; assay type: toxicity, organism-based; conditions: in vivo
[12] = test system: Rattus norvegicus; test: Antidyslipidemic activity in fasted Sprague-Dawley rat assessed as reduction in triglyceride level in plasma at 1 mg/kg, po after 1 hr relative to vehicle-treated control; assay type: functional; set-up: scale not given: the % may be the effect or the level left
[13] = test system: Mus musculus; test: Nephrotoxicity in CD1 mouse assessed as increase in serum blood urea nitrogen level at 100 mg/kg; assay type: toxicity, organism-based; set-up: dose 100 mg/kg; conditions: in vivo
[14] = test system: Canis familiaris; test: Antidyslipidemic activity in fasted beagle dog assessed as reduction in free fatty acid level in plasma at 3 mg/kg, po after 1 hr relative to vehicle-treated control; assay type: functional, Canis lupus familiaris; set-up: scale not given: the % may be the effect or the level left
[15] = test system: Rattus norvegicus; test: Antidyslipidemic activity in po dosed fasted Sprague-Dawley rat assessed as reduction in free fatty acid level in plasma; assay type: functional; conditions: for minimal effective dose: read-out: MED
[16] = target: Voltage-gated inwardly rectifying potassium channel KCNH2 (Homo sapiens, UniProt Q12809); test: Inhibition of human ERG up to 10 uM by patch clamp assay
[17] = Oral bioavailability in beagle dog at 1 mg/kg; assay type: ADME, organism-based, Canis lupus familiaris; conditions: in vivo
[18] = target: Cytochrome P450 2D6 (Homo sapiens, UniProt P10635); test: Inhibition of human CYP2D6; assay type: ADME
[19] = test system: Liver microsomes; test: Intrinsic clearance in rat liver microsomes assessed per 10^6 cells; assay type: ADME, Microsome
[20] = test system: Mus musculus; test: Nephrotoxicity in CD1 mouse at 100 mg/kg, po administered qd for 5 days measured 2 hrs post-last dose; assay type: toxicity, organism-based; set-up: dose 100 mg/kg, route oral; conditions: in vivo
[21] = test system: Canis familiaris; test: Antidyslipidemic activity in fasted beagle dog assessed as reduction in free fatty acid level in plasma at 1 mg/kg, po after 1 hr relative to vehicle-treated control; assay type: functional, Canis lupus familiaris; set-up: scale not given: the % may be the effect or the level left
[22] = AUC (0 to 24 hrs) in Sprague-Dawley rat at 5 mg/kg, po; assay type: ADME, organism-based; set-up: time < 24 hr, dose 5 mg/kg, route oral; conditions: plasma
[23] = test system: Rattus norvegicus; test: Antidyslipidemic activity in fasted Sprague-Dawley rat assessed as reduction in free fatty acid level in plasma at 3 mg/kg, po up to 2 hrs; assay type: functional, organism-based; set-up: dose 3 mg/kg
[24] = test system: Canis familiaris; test: Toxicity in fasted beagle dog assessed as change in skin colour at 1 to 10 mg/kg, po; assay type: organism-based, Canis lupus familiaris; set-up: dose 1-10 mg/kg, route oral; conditions: in vivo
[25] = AUC (0 to 24 hrs) in beagle dog at 1 mg/kg, po; assay type: ADME, organism-based, Canis lupus familiaris; set-up: time < 24 hr, dose 1 mg/kg, route oral; conditions: plasma
[26] = test system: Liver microsomes; test: Intrinsic clearance in human liver microsomes assessed per 10^6 cells; assay type: ADME, Microsome
[27] = target: Cytochrome P450 2C9 (Homo sapiens, UniProt P11712); test: Inhibition of human CYP2C9; assay type: ADME
[28] = test system: Rattus norvegicus; test: Antidyslipidemic activity in fasted Sprague-Dawley rat assessed as reduction in free fatty acid level in plasma at 3 mg/kg, po after 2 hrs; assay type: functional, organism-based; set-up: dose 3 mg/kg
[29] = test system: Liver; test: Intrinsic clearance in dog liver microsomes assessed per 10^6 cells; assay type: ADME, Canis lupus familiaris, Microsome
[30] = Oral bioavailability in Sprague-Dawley rat at 5 mg/kg; assay type: ADME, organism-based; conditions: in vivo
[31] = test system: Rattus norvegicus; test: Antidyslipidemic activity in po dosed fasted Sprague-Dawley rat assessed as reduction in triglyceride level in plasma; assay type: functional
[32] = test system: Canis familiaris; test: Toxicity in fasted beagle dog assessed as flushing at 1 to 10 mg/kg, po; assay type: organism-based, Canis lupus familiaris; set-up: dose 1-10 mg/kg, route oral; conditions: in vivo
[33] = test system: Liver; test: Intrinsic clearance in mouse liver microsomes assessed per 10^6 cells; assay type: ADME, Microsome
[34] = target: Cytochrome P450 3A4 (Homo sapiens, UniProt P08684); test: Inhibition of human CYP3A4; assay type: ADME
[35] = target: T1, Cytochrome P450 1A2 (Homo sapiens, UniProt P05177); test: Inhibition of human CYP1A2; assay type: ADME
T1 sequence (P05177 whole entry): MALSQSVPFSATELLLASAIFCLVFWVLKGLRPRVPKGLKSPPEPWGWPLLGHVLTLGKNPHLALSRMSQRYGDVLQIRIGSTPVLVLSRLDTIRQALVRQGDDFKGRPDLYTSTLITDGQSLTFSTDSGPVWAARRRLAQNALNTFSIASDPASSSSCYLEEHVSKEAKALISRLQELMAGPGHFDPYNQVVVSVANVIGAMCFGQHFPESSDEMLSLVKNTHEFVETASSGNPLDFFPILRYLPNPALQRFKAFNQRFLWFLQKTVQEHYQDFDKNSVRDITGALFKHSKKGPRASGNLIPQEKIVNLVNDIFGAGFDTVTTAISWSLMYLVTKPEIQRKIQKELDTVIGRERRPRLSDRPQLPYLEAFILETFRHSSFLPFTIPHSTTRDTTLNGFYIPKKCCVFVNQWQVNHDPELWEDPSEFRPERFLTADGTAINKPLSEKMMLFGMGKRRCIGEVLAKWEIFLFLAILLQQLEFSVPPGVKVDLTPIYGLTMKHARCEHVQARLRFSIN

[36] = test system: Canis familiaris; test: Toxicity in fasted beagle dog assessed as increase in cutaneous blood flow at 30 mg/kg, po relative to control; assay type: organism-based, Canis lupus familiaris; set-up: dose 30 mg/kg, route oral; conditions: in vivo
[37] = test system: Canis familiaris; test: Toxicity in fasted beagle dog assessed as behavioural changes at 30 mg/kg, po relative to control; assay type: organism-based, Canis lupus familiaris; set-up: dose 30 mg/kg, route oral; conditions: in vivo
[38] = test system: Canis familiaris; test: Toxicity in fasted beagle dog assessed as behavioural changes at 1 to 10 mg/kg, po; assay type: organism-based, Canis lupus familiaris; set-up: dose 1-10 mg/kg, route oral; conditions: in vivo
[39] = test system: Canis familiaris; test: Antidyslipidemic activity in fasted beagle dog assessed as reduction in free fatty acid level in plasma at 2 mg/kg, po after 1 hr relative to vehicle-treated control; assay type: functional, Canis lupus familiaris; set-up: scale not given: the % may be the effect or the level left
[40] = test system: Canis familiaris; test: Antidyslipidemic activity in po dosed fasted beagle dog assessed as reduction in free fatty acid level in plasma after 4 hr relative to vehicle-treated control; assay type: functional, organism-based; conditions: Canis lupus familiaris
[41] = test system: Canis familiaris; test: Toxicity in beagle dog assessed as flushing at 3 mg/kg, po; assay type: organism-based, Canis lupus familiaris; set-up: dose 3 mg/kg, route oral; conditions: in vivo
[42] = test system: Rattus norvegicus; test: Antidyslipidemic activity in fasted Sprague-Dawley rat assessed as reduction in free fatty acid level in plasma at 3 mg/kg, po after 1 hr relative to vehicle-treated control; assay type: functional; set-up: scale not given: the % may be the effect or the level left
[43] = test system: Rattus norvegicus; test: Antidyslipidemic activity in fasted Sprague-Dawley rat assessed as reduction in triglyceride level in plasma at 3 mg/kg, po after 1 hr relative to vehicle-treated control; assay type: functional; set-up: scale not given: the % may be the effect or the level left

Hydroxycarboxylic acid receptor 2 (Mus musculus, UniProt Q9EP66), sequence (Q9EP66 whole entry): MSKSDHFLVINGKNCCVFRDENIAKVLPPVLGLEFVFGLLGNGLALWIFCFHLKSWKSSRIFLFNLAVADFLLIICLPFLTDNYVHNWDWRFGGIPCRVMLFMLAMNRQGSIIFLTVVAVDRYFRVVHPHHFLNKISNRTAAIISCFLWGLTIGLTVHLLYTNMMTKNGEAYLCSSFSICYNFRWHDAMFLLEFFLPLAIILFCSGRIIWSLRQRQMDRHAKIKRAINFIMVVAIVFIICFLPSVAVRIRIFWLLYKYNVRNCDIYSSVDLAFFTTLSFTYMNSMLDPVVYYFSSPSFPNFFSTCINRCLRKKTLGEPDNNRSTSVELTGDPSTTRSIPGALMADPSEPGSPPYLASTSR
Hydroxycarboxylic acid receptor 2 (Rattus norvegicus, UniProt Q80Z39), sequence (Q80Z39 whole entry): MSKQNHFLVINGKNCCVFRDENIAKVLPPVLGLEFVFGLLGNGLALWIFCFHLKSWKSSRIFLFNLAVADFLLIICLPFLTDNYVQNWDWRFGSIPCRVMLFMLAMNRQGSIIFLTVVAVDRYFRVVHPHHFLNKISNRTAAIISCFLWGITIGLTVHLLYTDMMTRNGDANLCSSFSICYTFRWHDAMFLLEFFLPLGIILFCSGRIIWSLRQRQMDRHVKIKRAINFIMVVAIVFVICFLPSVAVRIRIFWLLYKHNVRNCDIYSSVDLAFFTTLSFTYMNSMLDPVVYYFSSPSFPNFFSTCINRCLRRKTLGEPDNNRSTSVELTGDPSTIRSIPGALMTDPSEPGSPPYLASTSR
Hydroxycarboxylic acid receptor 3, sequence (P49019 whole entry): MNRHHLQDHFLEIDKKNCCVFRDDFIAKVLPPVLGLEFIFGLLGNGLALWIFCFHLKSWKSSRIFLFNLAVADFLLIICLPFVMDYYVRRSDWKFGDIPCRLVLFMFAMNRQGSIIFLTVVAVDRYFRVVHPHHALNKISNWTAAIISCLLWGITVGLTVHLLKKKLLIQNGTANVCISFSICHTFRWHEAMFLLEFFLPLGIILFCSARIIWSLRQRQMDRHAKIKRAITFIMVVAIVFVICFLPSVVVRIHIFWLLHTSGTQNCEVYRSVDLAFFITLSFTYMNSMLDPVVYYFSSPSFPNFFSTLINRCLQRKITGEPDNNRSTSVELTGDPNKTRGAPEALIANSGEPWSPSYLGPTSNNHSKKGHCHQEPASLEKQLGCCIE
Cytochrome P450 2D6, sequence (P10635 whole entry): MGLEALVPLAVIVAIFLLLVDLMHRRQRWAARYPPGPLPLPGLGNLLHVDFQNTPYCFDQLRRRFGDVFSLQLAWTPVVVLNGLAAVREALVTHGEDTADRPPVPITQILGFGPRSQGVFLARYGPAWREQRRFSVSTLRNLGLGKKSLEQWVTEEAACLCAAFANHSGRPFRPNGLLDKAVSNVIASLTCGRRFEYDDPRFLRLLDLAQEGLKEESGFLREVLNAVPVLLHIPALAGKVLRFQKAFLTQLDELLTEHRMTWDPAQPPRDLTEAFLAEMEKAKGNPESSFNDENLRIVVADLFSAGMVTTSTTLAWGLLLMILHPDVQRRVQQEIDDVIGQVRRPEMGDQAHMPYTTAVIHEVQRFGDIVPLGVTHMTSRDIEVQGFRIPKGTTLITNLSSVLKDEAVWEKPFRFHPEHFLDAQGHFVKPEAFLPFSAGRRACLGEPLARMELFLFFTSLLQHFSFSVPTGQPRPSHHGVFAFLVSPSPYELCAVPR
Cytochrome P450 2C9, sequence (P11712 whole entry): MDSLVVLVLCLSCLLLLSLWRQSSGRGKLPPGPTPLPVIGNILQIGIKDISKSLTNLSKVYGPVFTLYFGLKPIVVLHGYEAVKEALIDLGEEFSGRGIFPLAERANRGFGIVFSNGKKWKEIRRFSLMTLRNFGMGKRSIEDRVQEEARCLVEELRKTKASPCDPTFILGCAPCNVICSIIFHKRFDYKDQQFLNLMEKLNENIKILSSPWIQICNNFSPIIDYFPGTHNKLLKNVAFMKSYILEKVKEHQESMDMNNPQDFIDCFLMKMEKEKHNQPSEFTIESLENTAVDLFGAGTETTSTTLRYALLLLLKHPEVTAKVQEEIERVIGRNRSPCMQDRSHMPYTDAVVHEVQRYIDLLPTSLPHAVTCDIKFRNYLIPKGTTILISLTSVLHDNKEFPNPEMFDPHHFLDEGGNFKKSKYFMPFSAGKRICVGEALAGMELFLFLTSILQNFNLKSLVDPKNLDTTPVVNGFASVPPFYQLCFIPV
Cytochrome P450 3A4, sequence (P08684 whole entry): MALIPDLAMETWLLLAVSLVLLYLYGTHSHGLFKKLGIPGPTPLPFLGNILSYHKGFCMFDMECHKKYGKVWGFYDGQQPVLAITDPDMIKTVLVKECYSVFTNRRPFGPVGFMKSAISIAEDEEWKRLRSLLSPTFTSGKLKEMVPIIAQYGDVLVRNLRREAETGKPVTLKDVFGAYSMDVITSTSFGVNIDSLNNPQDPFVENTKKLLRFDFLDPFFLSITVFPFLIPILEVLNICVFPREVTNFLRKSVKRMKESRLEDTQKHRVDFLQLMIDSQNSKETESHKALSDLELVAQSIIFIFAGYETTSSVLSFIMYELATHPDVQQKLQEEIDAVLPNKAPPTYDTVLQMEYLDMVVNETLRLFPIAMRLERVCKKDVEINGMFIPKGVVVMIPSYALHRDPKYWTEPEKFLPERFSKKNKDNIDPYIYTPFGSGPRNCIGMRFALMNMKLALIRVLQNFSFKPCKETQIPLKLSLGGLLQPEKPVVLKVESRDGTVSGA
Voltage-gated inwardly rectifying potassium channel KCNH2, sequence (Q12809 whole entry): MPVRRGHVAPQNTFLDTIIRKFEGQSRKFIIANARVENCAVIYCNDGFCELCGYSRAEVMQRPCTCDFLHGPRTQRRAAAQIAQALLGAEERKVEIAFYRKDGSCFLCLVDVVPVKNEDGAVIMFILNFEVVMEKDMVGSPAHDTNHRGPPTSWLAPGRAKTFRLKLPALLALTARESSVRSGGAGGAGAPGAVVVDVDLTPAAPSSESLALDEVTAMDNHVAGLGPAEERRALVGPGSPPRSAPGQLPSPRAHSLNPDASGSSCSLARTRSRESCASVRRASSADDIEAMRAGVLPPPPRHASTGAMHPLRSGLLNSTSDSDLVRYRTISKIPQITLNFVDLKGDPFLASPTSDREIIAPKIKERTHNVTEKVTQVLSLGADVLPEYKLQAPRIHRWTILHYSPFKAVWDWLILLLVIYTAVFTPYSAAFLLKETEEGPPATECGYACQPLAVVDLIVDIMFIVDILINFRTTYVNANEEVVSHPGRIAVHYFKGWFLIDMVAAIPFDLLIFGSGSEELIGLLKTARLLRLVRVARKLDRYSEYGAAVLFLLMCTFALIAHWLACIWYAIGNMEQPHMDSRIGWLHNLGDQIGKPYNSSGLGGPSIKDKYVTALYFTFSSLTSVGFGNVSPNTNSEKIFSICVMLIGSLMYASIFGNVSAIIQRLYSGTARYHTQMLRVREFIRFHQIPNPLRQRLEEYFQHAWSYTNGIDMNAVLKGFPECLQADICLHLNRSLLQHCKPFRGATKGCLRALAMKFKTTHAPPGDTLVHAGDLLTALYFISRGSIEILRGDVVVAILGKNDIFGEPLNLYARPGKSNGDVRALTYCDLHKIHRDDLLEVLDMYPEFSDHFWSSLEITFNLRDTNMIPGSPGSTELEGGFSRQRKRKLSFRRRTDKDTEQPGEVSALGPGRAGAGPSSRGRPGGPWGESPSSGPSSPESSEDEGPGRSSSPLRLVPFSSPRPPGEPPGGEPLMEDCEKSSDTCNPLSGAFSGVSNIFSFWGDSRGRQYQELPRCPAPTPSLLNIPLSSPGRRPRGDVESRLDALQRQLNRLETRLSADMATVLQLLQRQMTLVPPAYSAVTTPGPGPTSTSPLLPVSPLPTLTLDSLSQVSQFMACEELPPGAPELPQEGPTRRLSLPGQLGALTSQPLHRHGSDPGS

With CCCCc1cc(=O)oc2[nH]c(=O)[nH]c(=O)c12 the EC50 [1] was 8 nM, the Activity [2] was “Non-toxic” and the Activity [3] was 29%. The EC50 [4] was 12 nM, the Activity [5] was “Non-toxic” and the Activity [6] was “Toxic”. For the same compound, the EC50 [7] was 16 nM, the EC50 [8] was 190 nM and the Activity [9] was 90%. For the same compound, the Activity [10] was “Dose-dependent effect”, the Activity [11] was “Toxic” and the Activity [12] was 40%. The Activity [13] was “Toxic”.

With O=C(O)c1cccnc1 [NIACIN] the Activity [14] was 38%, the EC50 [7] was 31 nM and the EC50 [8] was over 10000 nM. The minimal effective dose [15] was 10 mg/kg.

For O=c1[nH]c(=O)c2c(CCC3CCC3)cc(=O)oc2[nH]1, the EC50 [1] was 5 nM, the Activity [2] was “Non-toxic” and the Activity [3] was 50%. The EC50 [4] was 4 nM, the Activity [5] was “Non-toxic” and the Activity [6] was “Toxic”. The EC50 [8] was 67 nM, the Activity [12] was 31% and the Activity [13] was “Toxic”.

With CC1(CCCc2cc(=O)oc3[nH]c(=O)[nH]c(=O)c23)CC1 [SCH-900271] the EC50 [1] was 8 nM, the “inhibition (INH)” value [16] was “Not Active” and the bioavailability [17] was 40%. It also gave an IC50 [18] of over 50000 nM, an Activity [3] of 53% and a CLH [19] of 10 µL/min. For the same compound, the Activity [20] was “Non-toxic”, the Activity [21] was 50% and the EC50 [4] was 6 nM. For the same compound, the AUC(0-t) at 24 h [22] was 7.6 µM·h, the Activity [23] was “Active” and the Activity [24] was “Non-toxic”. For the same compound, the AUC(0-t) at 24 h [25] was 7.2 µM·h, the CLH [26] was 1.6 µL/min and the IC50 [27] was over 50000 nM. The Activity [28] was “inactive”, the EC50 [7] was 5 nM and the EC50 [8] was 96 nM. The CLH [29] was under 1 µL/min, the bioavailability [30] was 76% and the Activity [15] was “Dose-dependent effect”. The ED50 [15] was 0.5 mg/kg, the minimal effective dose [15] was 3 mg/kg and the Activity [31] was “Dose-dependent effect”. For the same compound, the ED50 [31] was 0.5 mg/kg, the minimal effective dose ([31]; read-out: MED) was 3 mg/kg and the Activity [32] was “Non-toxic”. It also gave a CLH [33] of 8.7 µL/min, an IC50 [34] of over 50000 nM and an IC50 [35] of over 50000 nM. For the same compound, the “fold change (FC)” value [36] was 5, the Activity [12] was 53% and the Activity [37] was “Non-toxic”. For the same compound, the Activity [38] was “Non-toxic”.

In the case of O=c1[nH]c(=O)c2c(CCCC3CC3)cc(=O)oc2[nH]1, the EC50 [1] is reported as 2 nM, the Activity [2] is reported as “Non-toxic” and the Activity [3] is reported as 58%. For the same compound, the Activity [5] was “Non-toxic”, the Activity [6] was “Toxic” and the EC50 [7] was 1 nM. The EC50 [8] was 140 nM, the Activity [39] was 80% and the Activity [12] was 49%. For the same compound, the Activity [13] was “Toxic”.

With O=c1[nH]c(=O)c2c(CCCC(F)F)cc(=O)oc2[nH]1 the EC50 [1] was 2 nM, the Activity [14] was 80% and the EC50 [4] was 5 nM. For the same compound, the EC50 [8] was 59 nM, the Activity [40] was “inactive” and the Activity [41] was “Toxic”. The Activity [12] was 59%.

Compound CC(C)CCc1cc(=O)oc2[nH]c(=O)[nH]c(=O)c12 has an Activity [42] of 15%, an Activity [43] of 16% and an EC50 [8] of 1300 nM.
